Columns and labels:
Type in all cases: in vivo
Monochoria vaginalis = test: Test Example 2: herbicidal activity, application during weed generation in submerged conditions (symbol C); conditions: Table 23; application herbicide amount 320 g/ha; grade 0-5 by criteria of Test Example 1
Outline: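 Alluvial soil in pots was flooded to a 4 cm water depth and sown with a mix of the three weed species, then grown in a greenhouse at 25° C. to 30° C. At the one- to two-leaf stage, an emulsifiable formulation diluted in water to a set dose was applied to the water surface. Effects were scored visually 3 weeks later.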

Cyperus difformis = test: Test Example 3: herbicidal effect by foliage application, Wagner pot (symbol E); conditions: application herbicide amount 320 g/ha
Outline: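 Weeds and rice were sown in alluvial soil under 0.1–0.5 cm of standing water and grown for 14 days in a 25–30 °C greenhouse. An emulsion of the compound, diluted in water to a set dose, was sprayed evenly onto the foliage. Effect was scored against fixed criteria 3 weeks after treatment.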

[1] = test system: directly sowed rice plant; test: Test Example 3: effect on crop by foliage application, Wagner pot (symbol b); conditions: application herbicide amount 320 g/ha
Outline: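 Plants are raised from seed in flooded paddy conditions: water stands 0.1–0.5 cm over alluvial soil, and the pot is kept in a greenhouse at 25–30 °C. Species sown are barnyardgrass (E. crus-galli var. crus-galli), Leptochloa chinensis, Cyperus difformis and rice.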

Setaria viridis = test: Test Example 4: herbicidal effect by soil treatment (symbol G)
Outline: (§1)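 Seeds were sown in sterilized diluvial soil, covered with about 1.5 cm of soil, and the soil surface was sprayed with a water-diluted emulsion of the compound at a predetermined rate. Plants grew in a greenhouse at 25° C. to 30° C.; effects were scored visually 3 weeks after application.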

Apera spica-venti = test: Test Example 4: herbicidal effect by soil treatment (symbol L)
Outline: as §1

Abutilon theophrasti = test: Test Example 4: herbicidal effect by soil treatment (symbol M)
Outline: as §1

Amaranthus retroflexus = test: Test Example 4: herbicidal effect by soil treatment (symbol N)
Outline: as §1

Stellaria media = test: Test Example 4: herbicidal effect by soil treatment (symbol P)
Outline: as §1

rice = test: Test Example 4: effect on crop by soil treatment (symbol b)
Outline: (§2)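 Soil-treatment setup: crop and weed seeds were spot-sown into sterilized diluvial soil, then buried beneath approximately 1.5 cm of it, and the boxes were housed in a 25–30° C. greenhouse.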

wheat [2] = test: Test Example 4: effect on crop by soil treatment (symbol e)
Outline: as §2

Digitaria ciliaris = test: Test Example 5: herbicidal effect by foliage application, plastic box (symbol F); conditions: 320 g/ha, 3 weeks after application
Outline: (§3)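 Leaf-applied emulsion, water-diluted to a preset herbicide dose, on two-week-old seedlings raised in a 25° C. to 30° C. greenhouse; injury rated at 3 weeks using earlier criteria.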

Avena fatua = test: Test Example 5: herbicidal effect by foliage application, plastic box (symbol I); conditions: 320 g/ha, 3 weeks after application
Outline: as §3

Alopecurus myosuroides = test: Test Example 5: herbicidal effect by foliage application, plastic box (symbol J); conditions: 320 g/ha, 3 weeks after application
Outline: as §3

soybean = test: Test Example 5: effect on crop by foliage application, plastic box (symbol d); conditions: 320 g/ha, 3 weeks after application
Outline: (§4)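 Seeds were sown in spots in sterilized diluvial soil held in a plastic box 21 cm × 13 cm × 7 cm deep, covered with about 1.5 cm of soil, and grown in a greenhouse at 25° C. to 30° C.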

wheat [3] = test: Test Example 5: effect on crop by foliage application, plastic box (symbol e); conditions: 320 g/ha, 3 weeks after application
Outline: as §4

beet = test: Test Example 5: effect on crop by foliage application, plastic box (symbol f); conditions: 320 g/ha, 3 weeks after application
Outline: as §4

[4] = application herbicide amount 320 g/ha

| Structure (SMILES) | Herbicidal effect grade, C: Monochoria vaginalis (Monochoria vaginalis) | herbicidal effect on E, grade 0-5 (Cyperus difformis) | effect on crop b (directly sowed rice plant), grade 0-5 [1] | G (Setaria viridis) herbicidal effect grade (Setaria viridis; [4]) | L (Apera spica-venti) herbicidal effect grade (Apera spica-venti; [4]) | M (Abutilon theophrasti) herbicidal effect grade (Abutilon theophrasti; [4]) | N (Amaranthus retroflexus) herbicidal effect grade (Amaranthus retroflexus; [4]) | P (Stellaria media) herbicidal effect grade (Stellaria media; [4]) | b (directly sowed rice plant) effect on crop grade (rice; [4]) | e (wheat) effect on crop grade (wheat [2]; [4]) | F: Digitaria ciliaris, herbicidal effect grade (Digitaria ciliaris) | I: Avena fatua, herbicidal effect grade (Avena fatua) | J: Alopecurus myosuroides, herbicidal effect grade (Alopecurus myosuroides) | d: soybean, effect on crop grade (soybean) | e: wheat, effect on crop grade (wheat [3]) | f: beet, effect on crop grade (beet) | also measured |
| --- | --- | --- | --- | --- | --- | --- | --- | --- | --- | --- | --- | --- | --- | --- | --- | --- | --- |
| CC(CC1CC(O)=C(c2c(C)cc(C)cc2C)C1=O)=NOC(C)(C)C (centres unmarked) [1-053] | 0 (Herbicidal ratio of 5% or lower (almost no effect)) | 4 (Herbicidal ratio of 70% or higher and lower than 90%) | 5 (Herbicidal ratio of 90% or more (almost completely withered)) | 4 (Herbicidal ratio of 70% or higher and lower than 90%) | 3 (Herbicidal ratio of 40% or higher and lower than 70%) | 1 (Herbicidal ratio of 5% or higher and lower than 20%) | 0 (Herbicidal ratio of 5% or lower (almost no effect)) | 0 (Herbicidal ratio of 5% or lower (almost no effect)) | 5 (Herbicidal ratio of 90% or more (almost completely withered)) | 0 (Herbicidal ratio of 5% or lower (almost no effect)) | 3 (Herbicidal ratio of 40% or higher and lower than 70%) | 2 (Herbicidal ratio of 20% or higher and lower than 40%) | 4 (Herbicidal ratio of 70% or higher and lower than 90%) | 3 (Herbicidal ratio of 40% or higher and lower than 70%) | 0 (Herbicidal ratio of 5% or lower (almost no effect)) | 0 (Herbicidal ratio of 5% or lower (almost no effect)) | – |
| CON=C(C)CC1CC(OCC#C[Si](C)(C)C)=C(c2c(C)cc(C)cc2C)C1=O (centres unmarked) [1-031] | 0 (Herbicidal ratio of 5% or lower (almost no effect)) | 0 (Herbicidal ratio of 5% or lower (almost no effect)) | 5 (Herbicidal ratio of 90% or more (almost completely withered)) | 0 (Herbicidal ratio of 5% or lower (almost no effect)) | 0 (Herbicidal ratio of 5% or lower (almost no effect)) | 0 (Herbicidal ratio of 5% or lower (almost no effect)) | 0 (Herbicidal ratio of 5% or lower (almost no effect)) | 0 (Herbicidal ratio of 5% or lower (almost no effect)) | 0 (Herbicidal ratio of 5% or lower (almost no effect)) | 0 (Herbicidal ratio of 5% or lower (almost no effect)) | 1 (Herbicidal ratio of 5% or higher and lower than 20%) | 3 (Herbicidal ratio of 40% or higher and lower than 70%) | 3 (Herbicidal ratio of 40% or higher and lower than 70%) | 0 (Herbicidal ratio of 5% or lower (almost no effect)) | 0 (Herbicidal ratio of 5% or lower (almost no effect)) | 0 (Herbicidal ratio of 5% or lower (almost no effect)) | – |
| CON=C(C)CC1CC(OC(=O)COc2ccc(I)cc2)=C(c2c(C)cc(C)cc2C)C1=O (centres unmarked) [1-082] | 3 (Herbicidal ratio of 40% or higher and lower than 70%) | 5 (Herbicidal ratio of 90% or more (almost completely withered)) | 5 (Herbicidal ratio of 90% or more (almost completely withered)) | – | – | – | – | – | – | – | – | – | – | – | – | – | G: Setaria viridis, herbicidal effect grade (Setaria viridis; 320 g/ha): 5 (Herbicidal ratio of 90% or more (almost completely withered)); L: Apera spica-venti, herbicidal effect grade (Apera spica-venti; 320 g/ha): 5 (Herbicidal ratio of 90% or more (almost completely withered)); M: Abutilon theophrasti, herbicidal effect grade (Abutilon theophrasti; 320 g/ha): 5 (Herbicidal ratio of 90% or more (almost completely withered)); N: Amaranthus retroflexus, herbicidal effect grade (Amaranthus retroflexus; 320 g/ha): 5 (Herbicidal ratio of 90% or more (almost completely withered)); P: Stellaria media, herbicidal effect grade (Stellaria media; 320 g/ha): 0 (Herbicidal ratio of 5% or lower (almost no effect)); b: directly sowed rice plant, effect grade on crop (rice; 320 g/ha): 5 (Herbicidal ratio of 90% or more (almost completely withered)); e: wheat, effect grade on crop (wheat [2]; 320 g/ha): 3 (Herbicidal ratio of 40% or higher and lower than 70%); F: Digitaria ciliaris, herbicidal effect (criteria 0-5) (Digitaria ciliaris): 5 (Herbicidal ratio of 90% or more (almost completely withered)); I: Avena fatua, herbicidal effect (criteria 0-5) (Avena fatua): 5 (Herbicidal ratio of 90% or more (almost completely withered)); J: Alopecurus myosuroides, herbicidal effect (criteria 0-5) (Alopecurus myosuroides): 5 (Herbicidal ratio of 90% or more (almost completely withered)); d: soybean, effect on crop (criteria 0-5) (soybean): 4 (Herbicidal ratio of 70% or higher and lower than 90%); e: wheat, effect on crop (criteria 0-5) (wheat [3]): 5 (Herbicidal ratio of 90% or more (almost completely withered)); f: beet, effect on crop (criteria 0-5) (beet): 0 (Herbicidal ratio of 5% or lower (almost no effect)) |
| CC(CC1CC(O)=C(c2c(C)cc(C)cc2C)C1=O)=NOCC[Si](C)(C)C (centres unmarked) [1-055] | 0 (Herbicidal ratio of 5% or lower (almost no effect)) | 4 (Herbicidal ratio of 70% or higher and lower than 90%) | 5 (Herbicidal ratio of 90% or more (almost completely withered)) | 4 (Herbicidal ratio of 70% or higher and lower than 90%) | 2 (Herbicidal ratio of 20% or higher and lower than 40%) | 0 (Herbicidal ratio of 5% or lower (almost no effect)) | 0 (Herbicidal ratio of 5% or lower (almost no effect)) | 0 (Herbicidal ratio of 5% or lower (almost no effect)) | 5 (Herbicidal ratio of 90% or more (almost completely withered)) | 0 (Herbicidal ratio of 5% or lower (almost no effect)) | 3 (Herbicidal ratio of 40% or higher and lower than 70%) | 4 (Herbicidal ratio of 70% or higher and lower than 90%) | 4 (Herbicidal ratio of 70% or higher and lower than 90%) | 2 (Herbicidal ratio of 20% or higher and lower than 40%) | 0 (Herbicidal ratio of 5% or lower (almost no effect)) | 0 (Herbicidal ratio of 5% or lower (almost no effect)) | – |
| CON=C(CC1CC(O)=C(c2c(C)cc(Br)cc2C)C1=O)C1CC1 (centres unmarked) [9-002] | 0 (Herbicidal ratio of 5% or lower (almost no effect)) | – | – | – | – | – | – | – | – | – | 5 (Herbicidal ratio of 90% or more (almost completely withered)) | 5 (Herbicidal ratio of 90% or more (almost completely withered)) | 5 (Herbicidal ratio of 90% or more (almost completely withered)) | 0 (Herbicidal ratio of 5% or lower (almost no effect)) | 3 (Herbicidal ratio of 40% or higher and lower than 70%) | 0 (Herbicidal ratio of 5% or lower (almost no effect)) | E herbicidal effect grade (Cyperus difformis; Table 24): 5 (Herbicidal ratio of 90% or more (almost completely withered)); b (directly sowed rice plant) effect on crop grade ([1]; Table 24): 5 (Herbicidal ratio of 90% or more (almost completely withered)); Herbicidal effect grade, G: Setaria viridis (Setaria viridis; [4]): 5 (Herbicidal ratio of 90% or more (almost completely withered)); Herbicidal effect grade, L: Apera spica-venti (Apera spica-venti; [4]): 5 (Herbicidal ratio of 90% or more (almost completely withered)); Herbicidal effect grade, M: Abutilon theophrasti (Abutilon theophrasti; [4]): 0 (Herbicidal ratio of 5% or lower (almost no effect)); Herbicidal effect grade, N: Amaranthus retroflexus (Amaranthus retroflexus; [4]): 0 (Herbicidal ratio of 5% or lower (almost no effect)); Herbicidal effect grade, P: Stellaria media (Stellaria media; [4]): 0 (Herbicidal ratio of 5% or lower (almost no effect)); Effect on crop grade, b: directly sowed rice plant (rice; [4]): 5 (Herbicidal ratio of 90% or more (almost completely withered)); Effect on crop grade, e: wheat (wheat [2]; [4]): 0 (Herbicidal ratio of 5% or lower (almost no effect)) |

Reference: patent publication US11000033B2, “Ketone or oxime compound, and herbicide” (NISSAN CHEMICAL CORPORATION, priority 2014, dated 2021)
